pIC50: −log10 of the molar value. Active and inactive are the calls of the source. The rule behind the calls is not given here.
Tests used:
Mus musculus [1] = assay: Toxicity in human K562 cells expressing wild type Bcr-Abl xenografted mouse assessed as change in body weight at 3.3 to 10 mg/kg, po qd for 16 days relative to control; type: organism-based; conditions: in vivo, 384 h
Bcr/Abl fusion protein = Bcr/Abl fusion protein (Homo sapiens, UniProt P00519); type: protein assay
Description: Inhibition of wild type Bcr-Abl (unknown origin) using Tyr2 peptide substrate after 2 hrs by FRET-based Z'-lyte assay

[2] = system: Tyrosine-protein kinase ABL1 (Mus musculus), P00520 [T315I]; assay: Inhibition of Bcr-Abl T315I mutant phosphorylation in mouse BA/F3 cells after 4 hrs by Western blot analysis; type: cell-based; conditions: BaF3
[3] = system: Tyrosine-protein kinase ABL1 (Mus musculus), P00520 [T315I]; assay: Inhibition of Bcr-Abl T315I mutant in mouse BA/F3 cells assessed as reduction of STAT5 phosphorylation at 4 to 500 nM after 4 hrs by Western blot analysis; type: cell-based; conditions: BaF3
[4] = system: Tyrosine-protein kinase ABL1 (Mus musculus), P00520 [T315I]; assay: Inhibition of Bcr-Abl T315I mutant in mouse BA/F3 cells assessed as total protein level of STAT5 at 4 to 500 nM after 4 hrs by Western blot analysis; type: cell-based; conditions: BaF3
K562 [5] = assay: Cell cycle arrest in human K562 cells expressing wild type Bcr-Abl assessed as accumulation at G0/G1 phase at 0.8 nM after 24 hrs using propidium iodide staining by flow cytometry (reference value: 64.03%); type: functional
K562 [6] = assay: Cell cycle arrest in human K562 cells expressing wild type Bcr-Abl assessed as accumulation at G0/G1 phase at 4 nM after 24 hrs using propidium iodide staining by flow cytometry (reference value: 64.03%); type: functional
K562 [7] = assay: Cell cycle arrest in human K562 cells expressing wild type Bcr-Abl assessed as accumulation at G0/G1 phase at 20 nM after 24 hrs using propidium iodide staining by flow cytometry (reference value: 64.03%); type: functional
K562 [8] = assay: Cell cycle arrest in human K562 cells expressing wild type Bcr-Abl assessed as accumulation at G0/G1 phase at 100 nM after 24 hrs using propidium iodide staining by flow cytometry (reference value: 64.03%); type: functional
K562 [9] = assay: Induction of apoptosis in human K562 cells expressing wild type Bcr-Abl assessed as late apoptotic cells at 0.8 nM after 24 hrs using annexin-V/7-AAD staining by FACS analysis (reference value: 2.1%); type: functional
K562 [10] = assay: Induction of apoptosis in human K562 cells expressing wild type Bcr-Abl assessed as early apoptotic cells at 0.8 nM after 24 hrs using annexin-V/7-AAD staining by FACS analysis (reference value: 7.3%); type: functional
K562 [11] = assay: Induction of apoptosis in human K562 cells expressing wild type Bcr-Abl assessed as early apoptotic cells at 4 nM after 24 hrs using annexin-V/7-AAD staining by FACS analysis (reference value: 7.3%); type: functional
K562 [12] = assay: Induction of apoptosis in human K562 cells expressing wild type Bcr-Abl assessed as early apoptotic cells at 20 nM after 24 hrs using annexin-V/7-AAD staining by FACS analysis (reference value: 7.3%); type: functional
K562 [13] = assay: Induction of apoptosis in human K562 cells expressing wild type Bcr-Abl assessed as late apoptotic cells at 100 nM after 24 hrs using annexin-V/7-AAD staining by FACS analysis (reference value: 2.1%); type: functional
[14] = Cell cycle arrest in mouse BA/F3 cells expressing Bcr-Abl T315I mutant assessed as accumulation at G0/G1 phase at 4 nM after 24 hrs using propidium iodide staining by flow cytometry (reference value: 51.92%); type: functional, cell-based; conditions: BaF3
[15] = Cell cycle arrest in mouse BA/F3 cells expressing Bcr-Abl T315I mutant assessed as accumulation at G0/G1 phase at 100 nM after 24 hrs using propidium iodide staining by flow cytometry (reference value: 51.92%); type: functional, cell-based; conditions: BaF3
BaF3 [16] = assay: Induction of apoptosis in mouse BA/F3 cells expressing Bcr-Abl T315I mutant assessed as late apoptotic cells at 4 nM after 24 hrs using annexin-V/7-AAD staining by FACS analysis (reference value: 2.2%); type: functional
BaF3 [17] = assay: Induction of apoptosis in mouse BA/F3 cells expressing Bcr-Abl T315I mutant assessed as late apoptotic cells at 20 nM after 24 hrs using annexin-V/7-AAD staining by FACS analysis (reference value: 2.2%); type: functional
BaF3 [18] = assay: Induction of apoptosis in mouse BA/F3 cells expressing Bcr-Abl T315I mutant assessed as early apoptotic cells at 20 nM after 24 hrs using annexin-V/7-AAD staining by FACS analysis (reference value: 4.6%); type: functional
BaF3 [19] = assay: Induction of apoptosis in mouse BA/F3 cells expressing Bcr-Abl T315I mutant assessed as late apoptotic cells at 100 nM after 24 hrs using annexin-V/7-AAD staining by FACS analysis (reference value: 2.2%); type: functional
BaF3 [20] = assay: Induction of apoptosis in mouse BA/F3 cells expressing Bcr-Abl T315I mutant assessed as early apoptotic cells at 100 nM after 24 hrs using annexin-V/7-AAD staining by FACS analysis (reference value: 4.6%); type: functional
BaF3 [21] = assay: Induction of apoptosis in mouse BA/F3 cells expressing Bcr-Abl T315I mutant assessed as early apoptotic cells at 500 nM after 24 hrs using annexin-V/7-AAD staining by FACS analysis (reference value: 4.6%); type: functional
K562 [22] = assay: Cell cycle arrest in human K562 cells expressing wild type Bcr-Abl assessed as accumulation at G0/G1 phase after 24 hrs using propidium iodide staining by flow cytometry; type: functional, cell-based
K562 [23] = assay: Induction of apoptosis in human K562 cells expressing wild type Bcr-Abl assessed as late apoptotic cells after 24 hrs using annexin-V/7-AAD staining by FACS analysis; type: functional, cell-based
[24] = Cell cycle arrest in mouse BA/F3 cells expressing Bcr-Abl T315I mutant assessed as accumulation at G0/G1 phase after 24 hrs using propidium iodide staining by flow cytometry; type: functional, cell-based; conditions: BaF3
BaF3 [25] = assay: Induction of apoptosis in mouse BA/F3 cells expressing Bcr-Abl T315I mutant assessed as early apoptotic cells after 24 hrs using annexin-V/7-AAD staining by FACS analysis; type: functional, cell-based
Rattus norvegicus = assay: AUC (0 to infinity) in Sprague-Dawley rat at 10 mg/kg, iv; type: ADME, organism-based; set-up: dose 10 mg/kg, time infinity, route intravenous; conditions: in vivo
[26] = Ratio of Cmax in Sprague-Dawley rat at 25 mg/kg, po to IC50 for Bcr-Abl T315I mutant (unknown origin); type: ADME, organism-based; conditions: in vivo
K562 [27] = assay: Antitumor activity against human K562 cells expressing wild type Bcr-Abl xenografted in po dosed mouse assessed as tumor growth inhibition administered qd for 16 days; type: functional, organism-based
K562 [28] = assay: Antitumor activity against human K562 cells expressing wild type Bcr-Abl xenografted in mouse assessed as sign of tumor recurrence at 10 mg/kg, po qd for 16 days measured after 7 days of last dose; type: functional, organism-based
BaF3 [29] = assay: Antitumor activity against mouse BA/F3 cells expressing Bcr-Abl T315I mutant allografted in mouse assessed as tumor growth inhibition at 10 mg/kg, qd for 16 days; type: functional, organism-based
Mus musculus [30] = assay: Toxicity in human K562 cells expressing wild type Bcr-Abl xenografted mouse assessed as mortality at 3.3 to 10 mg/kg, po qd for 16 days; type: organism-based; conditions: in vivo, 384 h
cells = conditions: Mus musculus, BaF3, 72 h

Sequence of Tyrosine-protein kinase ABL1 (Mus musculus), P00520 [T315I] (P00520 whole entry T315I): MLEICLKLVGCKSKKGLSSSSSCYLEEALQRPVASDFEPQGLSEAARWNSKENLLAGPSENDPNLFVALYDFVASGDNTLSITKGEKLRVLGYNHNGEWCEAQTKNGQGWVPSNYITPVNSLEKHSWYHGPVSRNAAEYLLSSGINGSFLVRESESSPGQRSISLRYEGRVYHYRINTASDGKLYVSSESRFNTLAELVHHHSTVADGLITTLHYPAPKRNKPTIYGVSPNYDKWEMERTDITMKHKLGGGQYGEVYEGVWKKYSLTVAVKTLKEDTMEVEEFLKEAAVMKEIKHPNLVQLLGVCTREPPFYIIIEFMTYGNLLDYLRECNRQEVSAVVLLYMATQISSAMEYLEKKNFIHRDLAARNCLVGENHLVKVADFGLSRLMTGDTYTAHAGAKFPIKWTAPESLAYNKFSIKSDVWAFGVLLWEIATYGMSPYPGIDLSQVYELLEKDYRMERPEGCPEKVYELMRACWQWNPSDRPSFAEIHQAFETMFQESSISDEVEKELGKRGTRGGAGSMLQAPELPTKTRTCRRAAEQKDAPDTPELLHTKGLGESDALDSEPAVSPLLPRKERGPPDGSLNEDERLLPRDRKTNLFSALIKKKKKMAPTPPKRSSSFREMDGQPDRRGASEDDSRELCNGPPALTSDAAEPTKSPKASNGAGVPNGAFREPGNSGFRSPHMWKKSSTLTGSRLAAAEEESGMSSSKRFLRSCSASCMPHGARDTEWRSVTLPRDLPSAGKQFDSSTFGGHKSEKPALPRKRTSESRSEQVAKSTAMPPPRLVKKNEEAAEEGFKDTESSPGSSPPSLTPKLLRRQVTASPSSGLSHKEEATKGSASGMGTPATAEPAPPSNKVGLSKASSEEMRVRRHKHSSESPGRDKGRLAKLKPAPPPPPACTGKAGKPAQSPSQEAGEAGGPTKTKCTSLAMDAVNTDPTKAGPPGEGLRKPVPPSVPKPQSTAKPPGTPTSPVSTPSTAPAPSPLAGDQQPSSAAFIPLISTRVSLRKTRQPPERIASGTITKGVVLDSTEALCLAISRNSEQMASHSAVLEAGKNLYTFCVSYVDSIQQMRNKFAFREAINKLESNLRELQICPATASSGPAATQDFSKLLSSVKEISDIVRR
Sequence of Bcr/Abl fusion protein (P00519 whole entry, the tested form may be a part): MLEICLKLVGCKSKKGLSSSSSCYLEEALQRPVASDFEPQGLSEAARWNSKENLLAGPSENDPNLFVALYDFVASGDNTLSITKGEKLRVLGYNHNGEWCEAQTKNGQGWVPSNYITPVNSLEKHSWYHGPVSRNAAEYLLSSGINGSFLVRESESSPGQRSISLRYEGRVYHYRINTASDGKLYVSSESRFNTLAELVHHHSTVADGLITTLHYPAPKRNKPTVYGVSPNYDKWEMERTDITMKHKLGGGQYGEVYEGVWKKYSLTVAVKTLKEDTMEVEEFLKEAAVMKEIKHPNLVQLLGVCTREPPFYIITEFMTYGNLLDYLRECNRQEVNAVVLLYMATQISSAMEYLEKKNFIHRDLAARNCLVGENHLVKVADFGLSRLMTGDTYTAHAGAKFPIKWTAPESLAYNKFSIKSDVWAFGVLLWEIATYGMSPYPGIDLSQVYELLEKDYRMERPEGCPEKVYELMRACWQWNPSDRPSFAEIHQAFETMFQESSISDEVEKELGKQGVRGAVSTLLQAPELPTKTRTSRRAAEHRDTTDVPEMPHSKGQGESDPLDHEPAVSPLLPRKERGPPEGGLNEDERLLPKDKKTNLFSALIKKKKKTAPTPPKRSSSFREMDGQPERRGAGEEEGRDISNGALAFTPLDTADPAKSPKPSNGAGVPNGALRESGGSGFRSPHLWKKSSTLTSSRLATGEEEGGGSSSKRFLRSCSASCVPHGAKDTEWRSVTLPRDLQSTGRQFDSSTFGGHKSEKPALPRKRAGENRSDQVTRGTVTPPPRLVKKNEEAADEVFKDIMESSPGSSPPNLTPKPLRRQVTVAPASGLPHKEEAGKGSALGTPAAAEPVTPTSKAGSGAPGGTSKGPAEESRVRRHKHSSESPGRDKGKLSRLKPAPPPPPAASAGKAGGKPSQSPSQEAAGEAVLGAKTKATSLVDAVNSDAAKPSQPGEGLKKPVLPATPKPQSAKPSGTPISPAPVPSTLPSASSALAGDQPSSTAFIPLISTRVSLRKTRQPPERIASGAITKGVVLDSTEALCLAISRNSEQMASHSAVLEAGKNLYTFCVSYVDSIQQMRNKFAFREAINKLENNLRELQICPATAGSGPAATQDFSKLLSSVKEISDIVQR
Sequence of Bcr/Abl fusion protein (P11274 whole entry, further chain, the tested form may be a part): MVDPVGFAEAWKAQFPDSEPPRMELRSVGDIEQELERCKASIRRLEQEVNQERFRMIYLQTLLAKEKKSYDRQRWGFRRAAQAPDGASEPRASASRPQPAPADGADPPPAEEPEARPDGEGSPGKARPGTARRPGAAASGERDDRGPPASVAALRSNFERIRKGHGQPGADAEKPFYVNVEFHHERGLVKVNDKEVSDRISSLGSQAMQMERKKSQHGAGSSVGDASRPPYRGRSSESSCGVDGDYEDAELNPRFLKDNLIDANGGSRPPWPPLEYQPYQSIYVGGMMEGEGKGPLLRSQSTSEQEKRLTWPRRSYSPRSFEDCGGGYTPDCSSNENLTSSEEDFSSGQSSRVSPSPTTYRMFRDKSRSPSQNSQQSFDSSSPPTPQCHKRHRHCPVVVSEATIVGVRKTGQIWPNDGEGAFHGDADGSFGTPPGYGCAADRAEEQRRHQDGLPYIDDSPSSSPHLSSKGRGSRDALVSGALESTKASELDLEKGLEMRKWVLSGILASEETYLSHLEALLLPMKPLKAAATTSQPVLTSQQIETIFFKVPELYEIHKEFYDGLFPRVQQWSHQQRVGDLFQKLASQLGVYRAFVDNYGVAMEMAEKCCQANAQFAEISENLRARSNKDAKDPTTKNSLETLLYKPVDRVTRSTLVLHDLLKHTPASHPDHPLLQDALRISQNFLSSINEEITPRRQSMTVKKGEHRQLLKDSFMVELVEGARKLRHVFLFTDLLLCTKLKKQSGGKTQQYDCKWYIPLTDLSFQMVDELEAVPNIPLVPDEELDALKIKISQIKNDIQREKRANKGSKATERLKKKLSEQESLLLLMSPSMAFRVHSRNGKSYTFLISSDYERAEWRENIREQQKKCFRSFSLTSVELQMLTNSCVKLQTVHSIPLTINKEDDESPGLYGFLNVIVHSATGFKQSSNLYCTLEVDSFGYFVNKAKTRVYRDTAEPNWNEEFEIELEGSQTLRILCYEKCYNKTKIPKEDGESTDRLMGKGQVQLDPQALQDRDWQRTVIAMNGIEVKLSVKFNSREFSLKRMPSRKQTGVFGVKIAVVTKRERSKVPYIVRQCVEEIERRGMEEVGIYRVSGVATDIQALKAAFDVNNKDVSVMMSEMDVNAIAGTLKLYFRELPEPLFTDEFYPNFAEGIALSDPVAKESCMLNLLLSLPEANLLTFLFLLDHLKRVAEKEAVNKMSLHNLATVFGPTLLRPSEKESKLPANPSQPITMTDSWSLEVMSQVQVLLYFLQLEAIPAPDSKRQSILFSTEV

Q: With Cc1cn(-c2cc(NC(=O)c3ccc(C)c(C#Cc4cnc(NC5CC5)nc4)c3)cc(C(F)(F)F)c2)cn1 as the compound, how does the Activity (Mus musculus [1]) read?
A: < 5%

Q: And the pIC50 (Bcr/Abl fusion protein)?
A: 8.30

Q: What about the inhibition [2] of the same compound?
A: Dose-dependent effect

Q: And the inhibition [3]?
A: Active

Q: What about the inhibition [4] of the same compound?
A: inactive

Q: What about the Activity (K562 [5]) of the same compound?
A: 67.61%

Q: What about the Activity (K562 [6]) of the same compound?
A: 85.99%

Q: And the Activity (K562 [7])?
A: 87.03%

Q: What about the Activity (K562 [8]) of the same compound?
A: 91.44%

Q: And the Activity (K562 [9])?
A: 1.7%

Q: What about the Activity (K562 [10]) of the same compound?
A: 7.1%

Q: And the Activity (K562 [11])?
A: 6.7%

Q: And the Activity (K562 [12])?
A: 14.2%

Q: And the Activity (K562 [13])?
A: 9%

Q: What about the Activity [14] of the same compound?
A: 52.4%

Q: And the Activity [15]?
A: 67.2%

Q: What about the Activity (BaF3 [16]) of the same compound?
A: 3.3%

Q: What about the Activity (BaF3 [17]) of the same compound?
A: 4.1%

Q: What about the Activity (BaF3 [18]) of the same compound?
A: 6.6%

Q: What about the Activity (BaF3 [19]) of the same compound?
A: 4%

Q: And the Activity (BaF3 [20])?
A: 7.1%

Q: What about the Activity (BaF3 [21]) of the same compound?
A: 10.2%

Q: What about the Activity (K562 [22]) of the same compound?
A: Dose-dependent effect

Q: And the Activity (K562 [23])?
A: Dose-dependent effect

Q: What about the Activity [24] of the same compound?
A: Dose-dependent effect

Q: What about the Activity (BaF3 [25]) of the same compound?
A: Dose-dependent effect

Q: And the AUC (Rattus norvegicus)?
A: 285187 µg/L/h

Q: What about the Ratio [26] of the same compound?
A: 1333

Q: What about the “growth inhibition (GI)” value (K562 [27]) of the same compound?
A: Dose-dependent effect

Q: And the Activity (K562 [28])?
A: inactive

Q: And the Activity (BaF3 [29])?
A: inactive

Q: And the Activity (Mus musculus [30])?
A: Non-toxic

Q: And the pIC50 (cells)?
A: 7.30

— ChEMBL document CHEMBL3603836, “Hybrid pyrimidine alkynyls inhibit the clinically resistance related Bcr-Abl(T315I) mutant” (Bioorg Med Chem Lett, 2015)
